Assay results from patent US11464738B2, “Ionic liquid-based nanoemulsion formulation for the efficient delivery of hydrophilic and hydrophobic therapeutic agents” (Wisconsin Alumni Research Foundation, priority 2018, dated 2022).
Entries after “also recorded” stand apart in the source; their conditions may differ.

Columns and labels:
[1] = literature value; cited from earlier work
zebrafish (Danio rerio) = experiment: Embryo-larval zebrafish developmental toxicity assay; format: in vivo; conditions: for in vivo toxicity in zebrafish (in words): developmental toxicity assay
Experimental: In Vivo Developmental Toxicity Study. An embryo-larval zebrafish (Danio rerio) model was used to evaluate the toxicity of the novel dicationic cholinium-based ionic liquid. The following protocol was taken from previously published protocol, analyzing the toxicity of a novel triphilic polymers for use as a component in a nanoemulsion.^1 Zebrafish of the AB strain were obtained from Dr. Michael Taylor at the University of Wisconsin-Madison School of Pharmacy, where the fish were cultured until sexual maturation. Zebrafish were maintained in a light/dark cycle of 14:10 h at 28.5° C. in egg water (0.03% Instant Ocean, Blacksburg, Va., USA). The adult fish were fed Anemia nauplii twice daily. Embryos were obtained from adult fish with a ratio of 1:2 for female to male. Six breeding groups were placed in separate spawning aquariums, equipped with a mesh bottom to prevent the eggs from being cannibalized. Crossing was induced in the morning. After one hour, eggs free of macroscopically discernible symptoms of infection and disease were collected, rinsed with egg water, and transferred into Petri dishes until chemical exposure. The embryo-larval toxicity assay was subsequently carried out. 8 fertilized eggs at 2 hours post fertilization (hpf) stage were added to a 24-well plate. Each well was filled with eggs and contained 600 μL of egg water. Six concentrations plus two controls (negative and positive) were plated. For analysis of [DC-7][2Br], sodium bis(trifluoromethylsulfonyl)imide, and [DC-7][2NTf2] containing nanoemulsion the concentrations analyzed were 1 mM, 333 μM, 111 μM, 37 μM, 12.3 μM, and 4.1 μM. 1.5 mL of [DC-7][2NTf2] was added to a 15 mL conical centrifuge tube followed by 1.5 mL of egg water. The sample was allowed to sit for 6 days prior to use. Each day, the sample was sonicated at 40° C. for 6 hours and then allowed to remain at room temperature for 18 hours. After 6 days, the sample was centrifuged at 2000 rpm for 5 minutes to ensure complete sedimentation of the ionic liquid. 1.2 mL of egg water was removed and served as the stock solution. This served as the highest concentration sample. Integration of the internal standard and [DC-7][2NTf2] in the QNMR sample allowed for quantitation of the concentration of [DC-7][2NTf2] present in the stock solution used for the zebrafish viability assay. The concentrations analyzed for [DC-7][2NTf2] sample were 7.11 mM, 3.56 mM, 1.78 mM, 889 μM, 444 μM, and 222 μM.
The plates were covered and incubated at 28.5° C. in a light/dark cycle of 14:10 throughout the 96 hpf exposure period. The observations of zebrafish development were made directly in the well using a stereomicroscope (Nikon SMZ18) every 24 hours. The end points that were selected to monitor the effects of [DC-7][2Br], sodium bis(trifluoromethylsulfonyl)imide, [DC-7][2NTf2] saturated water solution and nanoemulsion included mortality, spontaneous movement, hatching success, pericardial edema, and curved body axis. Embryos and larvae were considered dead when no heartbeat was observed. The number of hatched embryos and a cumulative mortality tally were recorded every 24 h after 2 hpf. At 96 hpf, following the final observations, representative larvae for [DC-7][2Br] and [DC-7][2NTf2] saturated egg water were anesthetized with 0.4% tricaine mesylate solution and mounted on Petri dishes using low melting point agarose. These larvae were then photographed using a high-definition color microscope camera (Nikon DSFi2). Finally, all larvae used for the analysis were euthanized following.

[2] = UV/vis spectroscopy of the aggregation state of AmB; format: physicochemical; conditions: for aggregation state of AmB in the medium (in words): AmB solubilized in the ionic liquid or ionic liquid mixture named
Experimental: Measuring absorbance of Amphotericin B (AmB) at distinct wavelengths using UV/vis spectroscopy provides insight into its degree of self-aggregation. Absorption spectra were obtained on a Varian Cary 100Bio UV-vis spectrometer (Varian, Palto Alto, Calif.) at 25° C. using a quartz coverslip with a 0.1 mm pathlength (Starna Cells, Inc., Atascadero, Calif.) or a 1 mm pathlength quartz cuvette (Starna Cells, Inc., Atascadero, Calif.). Absorbance was measured from 300 nm to 500 nm. Samples were prepared by direct addition of AmB powder to neat ionic liquids. Ionic liquids solid at room temperature were first melted using a water bath at 60° C. prior to addition of AmB powder. After addition of solid drug, (1) 100 μL of methanol was then added to the IL mixture and the mixture was stirred at room temperature for 1 hour. (2) The drug/IL mixture was then placed under rotary evaporation in a water bath with at a temperature of 60° C. for 1 hour. (3) The drug/IL mixture was then placed under high vacuum for 1 hour. (4) The drug/IL mixture was then allowed to stir for 1 hour. This process (steps 1-4) was repeated until all drug visibly was solubilized. The drug/IL mixture was then placed under rotary evaporation at 60° C. for an additional hour and then under high vacuum for 24 hours prior to use to ensure removal of all methanol. Samples were shielded from light prior to analysis. Neat ionic liquids served as the baseline for AmB samples solubilized in ionic liquid. Dilution samples were performed using 1×PBS for dilution. Analysis of AmB nanoemulsion required a nanoemulsion without drug as the baseline to correct for inherent scattering of the prepared nanoemulsion.

[3] = Quantitative 19F NMR (QNMR) water-solubility of hydrophobic ionic liquids; format: physicochemical; conditions: saturated D2O; for solubility at 6 days: 25 °C, water, thermodynamic from solid, read-out: Ionic Liquid Concentration in D2O (water-solubility)
Experimental: Example 12A: Quantitative ^19F NMR spectroscopy (QNMR) for determination of concentration of hydrophobic ionic liquids in a water-solution for comparison of water-solubility of hydrophobic ionic liquids.
^19F NMR spectra was measured using a Varian UI 500 MHz spectrometer equipped with a Nalorac Quad Nucleus DD probe (qn6121, 5 mm). The internal temperature of the NMR spectrometer was maintained at 25° C. Sodium trifluoroacetate was used as an internal standard was employed in order to determine the concentration of [DC-7][2NTf2]. The internal standard was prepared in D2O and the stock solution was allowed to sonicate at 30° C. for 4 hours prior to use in order to ensure complete dissolution of sodium trifluoroacetate. Prior to quantitative study, the T1 value of both [DC-7][2NTf2] and sodium trifluoroacetate were determined using an inversion recover experiment acquired with 12 independent quadratically spaced variable (tau) values (values from 0.06944-10). The T1 value was calculated in order to ensure that both signals fully relaxed between pulses. The following parameters were employed for acquisition of T1 spectra: 500 MHz; spectra width, 107962.2 Hz; acquisition time, 1.004 s; number of points, 216688; relaxation delay, 18.996 s; number of transients, 1; 90° pulse width, 17.1 μs. X-Win32 software was used to calculate the T1 value and processing included a line broadening of 1 Hz. The T1 value of the sodium trifluoroacetate and [DC-7][2NTf2] was determined to be 2.76±0.172 seconds and 2.69±0.0885 seconds, respectively. After determination of T1, the QNMR study was completed on an optimized spectrum. […] The acquired spectrum has a signal to noise ratio of 4700, which exceeded the desired 3000 needed for quantitation. […] 0.5 mL of D2O was removed and then subsequently analyzed. Integration of the internal standard and [DC-7][2NTf2] allowed for quantitation of the concentration of [DC-7][2NTf2] present in the stock solution used for the zebrafish viability assay.

[4] = Viscosity (Brookfield viscometer); format: physicochemical; conditions: 30.2 ° C.
Experimental: A Brookfield viscometer (Model RVDV-1) was used to analyze the ionic liquids at 30° C. The spindle used on the instrument was CPA-41Z. After addition of 2 mL of sample to the instrument cup, the cup was warmed until all IL samples were completely transparent before beginning the measurement. The RPM was adjusted per sample in order to ensure the percent torque applied per sample was in a consistent range.

C[C@@H]1[C@H](O)[C@@H](C)/C=C/C=C/C=C/C=C/C=C/C=C/C=C/[C@H](O[C@@H]2O[C@H](C)[C@@H](O)[C@H](N)[C@@H]2O)C[C@@H]2O[C@](O)(C[C@@H](O)C[C@@H](O)[C@H](O)CC[C@@H](O)C[C@@H](O)CC(=O)O[C@H]1C)C[C@H](O)[C@H]2C(=O)O [AmB, Amphotericin B]
water solubility [1]: < 1.0 µg/mL

O=C(O)C(F)(F)C(F)(F)C(F)(F)C(F)(F)C(F)(F)C(F)(F)C(F)(F)F [PFOA, perfluorooctanoic acid, reference compound]
zebrafish malformations, microscope images (in words) (zebrafish (Danio rerio); 96 hours post-fertilization, concentration not stated (FIG. 64)): spinal curvature

CCCCCC(=O)[O-].C[N+](C)(C)CCO [[Chol][Hex], cholinium hexanoate]
aggregation state of AmB in the medium (in words) [2]: solely the monomeric form
aggregation state of AmB upon dilution (in words) ([2]; dilution with phosphate-buffered saline / saline): shifts from primarily the monomeric to the aggregated form; also recorded: concentration dependent aggregation; also recorded: shifted from monomeric to aggregated

C[N+](C)(CCO)CCCCCCC[N+](C)(C)CCO [[DC-7][2NTf2]]
solubility at 6 days [3]: 10.7 mM
Ionic Liquid Concentration in D2O (water-solubility) ([3]; 25° C.): 6 mM
zebrafish malformations (in words) (zebrafish (Danio rerio); 889 μM, 96 hours post fertilization): no malformations
zebrafish survival rate / viability (zebrafish (Danio rerio); 889 μM, dilution of saturated water solution, 96 hours post fertilization): 100%
in vivo toxicity in zebrafish (in words) (zebrafish (Danio rerio); 96 hours post fertilization): does not exhibit toxicity; also recorded: minimal toxicity
in vivo toxicity in zebrafish (in words) (zebrafish (Danio rerio); 96 hours post fertilization, listed as [CDIL-7][NTf2]): extremely low
aggregation state of AmB in the medium (in words) [2]: mixture of the aggregated form and monomeric form; also recorded: mixture of monomeric and aggregated AmB

C[N+](C)(CCO)CCOCCOCC[N+](C)(C)CCO [[DC-ether][2NTf2]]
solubility at 6 days [3]: 13 mM
Viscosity [4]: 891.5 cP

O=S(=O)([N-]S(=O)(=O)C(F)(F)F)C(F)(F)F.[Na+] [sodium bis(trifluoromethylsulfonyl)imide, reference compound]
zebrafish survival rate (zebrafish (Danio rerio); 111 μM, 96 hours post fertilization): 87%
in vivo toxicity in zebrafish (in words) (zebrafish (Danio rerio); 96 hours post fertilization): minimal toxicity
